Assay results published in patent US20030129222A1, “Liposomal imexon” (priority 2000, published 2003).
Read-outs that look alike come from different tables or passages of the source.

Legend:
[1] = cited from earlier work
[2] = system: L1210 leukemia, Mdr; assay: Cytotoxicity in tumor cell culture, MTT assay; assay type: cell-based, murine; settings: MTT assay, multidrug-resistant, read-out: IC50 against human mouse tumors, L1210 leukemia Mdr
Excerpt: (§1) Relative potencies of the N-substituted 2-cyanoaziridine-1-carboxamides in a panel of tumor cell cultures are compared in Table 3. This panel includes the following lines of human tumor cells: sensitive and imexon-resistant lines of multiple myeloma (Matsuoka et al., 1967); ovarian carcinoma resistant to standard drugs (Hamilton et al., 1984); melanoma with a slow growth fraction (Girard et al., 1973); breast carcinoma including sensitive, doxorubicin-resistant (P-glycoprotein-positive) (Taylor et al., 1991), and mitoxantrone-resistant (P-glycoprotein-negative) (Futscher et al., 1994) lines; sensitive and multidrug-resistant colon carcinoma (Noguchi et al., 1979; Dalton et al., 1988); and multidrug-resistant lung carcinoma (P-glycoprotein-negative) (Girard et al., 1973). It also has sensitive (Goldin et al., 1961) and multidrug-resistant (P-glycoprotein-positive) (Salmon and Hersh, 1994) murine L1210 leukemia cells.

[3] = system: L1210 leukemia, Sens; assay: Cytotoxicity in tumor cell culture, MTT assay; assay type: cell-based, murine; settings: MTT assay, read-out: IC50 against human mouse tumors, L1210 leukemia Sens
Excerpt: as §1

[4] = system: 8226 myeloma, Sens (drug-sensitive); assay: Cytotoxicity in tumor cell culture, SRB assay; assay type: cell-based, human
Excerpt: as §1

[5] = system: A-549 lung; assay: Cytotoxicity in tumor cell culture, SRB assay; assay type: cell-based, human; settings: read-out: IC50 against human mouse tumors, A-549 lung
Excerpt: as §1

[6] = system: A375 melan; assay: Cytotoxicity in tumor cell culture, SRB assay; assay type: cell-based, human; settings: read-out: IC50 against human mouse tumors, A375 melan
Excerpt: as §1

[7] = system: MCF7 breast, Dox (doxorubicin-resistant); assay: Cytotoxicity in tumor cell culture, SRB assay; assay type: cell-based, human; settings: doxorubicin-resistant, read-out: IC50 against human mouse tumors, MCF7 breast Dox
Excerpt: as §1

[8] = system: MCF7 breast, Sens; assay: Cytotoxicity in tumor cell culture, SRB assay; assay type: cell-based, human; settings: read-out: IC50 against human mouse tumors, MCF7 breast Sens
Excerpt: as §1

[9] = system: MCF7 breast, mitox (mitoxantrone-resistant); assay: Cytotoxicity in tumor cell culture, SRB assay; assay type: cell-based, human; settings: mitoxantrone-resistant, read-out: IC50 against human mouse tumors, MCF7 breast mitox
Excerpt: as §1

[10] = system: OVCAR3 ovarian; assay: Cytotoxicity in tumor cell culture, SRB assay; assay type: cell-based, human; settings: read-out: IC50 against human mouse tumors, OVCAR3 ovarian
Excerpt: as §1

[11] = system: 8226 myeloma, Res (imexon-resistant); assay: Cytotoxicity in tumor cell culture, SRB assay; assay type: cell-based; settings: line made resistant to imexon, read-out: IC50 against human mouse tumors, 8226 myeloma Res
Excerpt: as §1

[12] = system: WiDr colon, Sens; assay: Cytotoxicity in tumor cell culture, SRB assay; assay type: cell-based; settings: read-out: IC50 against human mouse tumors, WiDr colon Sens
Excerpt: as §1

[13] = system: WiDr colon, res; assay: Cytotoxicity in tumor cell culture, SRB assay; assay type: cell-based; settings: multidrug-resistant, read-out: IC50 against human mouse tumors, WiDr colon res
Excerpt: as §1

[14] = substituent constant, from Hansch and Leo or calculated using Clog P software; cited from earlier work
[15] = cited from earlier work; remark: listed apart in the source
[16] = against sensitive myeloma, values repeated from Table 3 (μM there), read-out: IC50
[17] = drug-sensitive line, read-out: IC50 against human mouse tumors, 8226 myeloma Sens

| Compound | π [14] | IC50 [2] [µM] | IC50 [3] [µM] | Log(1/C) ([4]; against sensitive myeloma) | IC50 [4, 16] [µM] | IC50 [4, 17] [µM] | IC50 [5] [µM] | IC50 [6] [µM] | IC50 [7] [µM] | IC50 [8] [µM] | IC50 [9] [µM] | IC50 [10] [µM] | IC50 [11] [µM] | IC50 [12] [µM] | IC50 [13] [µM] | further results |
| --- | --- | --- | --- | --- | --- | --- | --- | --- | --- | --- | --- | --- | --- | --- | --- | --- |
| CS(=O)(=O)OCCCCOS(C)(=O)=O [Busulfan, 1,4-butanediol dimethanesulfonate] | – | – | – | – | – | – | – | – | – | – | – | – | – | – | – | adults obtaining hematologic remission ([1]; previously untreated chronic myelogenous leukemia): Approximately 90% |
| CNC(=O)N1CC1C#N (centres unmarked) [Compound 6, 2-Cyanoaziridine-1-(N-methyl) carboxainide] | 0.50 | – | – | – | – | – | – | – | – | – | – | – | – | – | – | IC50 ([2]; Mus musculus, L1210): 21 µM; IC50 ([3]; Mus musculus, L1210): 8.7 µM; IC50 ([4]; Homo sapiens, against sensitive myeloma, read-out: Log(1/C) (converted)): 25.7 µM; IC50 ([4]; Homo sapiens, against sensitive myeloma, values repeated from Table 3 (μM there), read-out: IC50): 26 µM; IC50 ([4]; Homo sapiens, drug-sensitive line, read-out: IC50 against human mouse tumors, 8226 myeloma Sens): 26 µM; IC50 ([5]; Homo sapiens, A549): 22 µM; IC50 ([6]; Homo sapiens, A-375): 17 µM; IC50 ([7]; Homo sapiens, MCF7): 17 µM; IC50 ([8]; Homo sapiens, MCF7): 27 µM; IC50 ([9]; Homo sapiens, MCF7): 18 µM; IC50 ([10]; Homo sapiens, OVCAR-3): 14 µM; IC50 ([11]; Homo sapiens): 26 µM; IC50 ([12]; Homo sapiens, WiDr): 21 µM; IC50 ([13]; Homo sapiens, WiDr): 23 µM; melting point: 98 to 100 °C |
| N#CC1CN1C(=O)Nc1ccc(F)cc1 (centres unmarked) [Compound 14, 2-Cyanoaziridine-1-[N-(4-fluorophenyl)]carboxamide] | 2.14 | 5.9 | 7.3 | 5.30 | 5 | 5 | 6.2 | 3.4 | 2.4 | 1.9 | 2.7 | 5.9 | 5.9 | 2.1 | 9 | – |
| N#CC1CN1C(=O)Nc1ccc(C(F)(F)F)cc1 (centres unmarked) [Compound 15, 2-Cyanoaziridine-1-[N-(4-trifluorophenyl)]carboxamide] | 2.88 | 7.1 | 7.8 | 5.09 | 8.2 | 8.2 | 4.3 | 11.8 | 1.4 | 1.5 | 1.3 | 5.9 | 7.8 | 1.3 | 5.8 | – |
| N#CC1CN1C(=O)Nc1ccc([N+](=O)[O-])cc1 (centres unmarked) [Compound 16, 2-Cyanoaziridine-1-[N-(4-nitrophenyl)]carboxamide] | 1.72 | 2.6 | 2.6 | 5.04 | 9.1 | 9.1 | 3.9 | 3.9 | 3 | 3 | 3 | 6.5 | 8.6 | 4.3 | 3.7 | – |
| N#CC1CN1C(=O)Nc1ccc(Cl)cc1Cl (centres unmarked) [Compound 17, 2-Cyanoaziridine-1-[N-(2,4-dichlorophenyl)]carboxamide] | 3.42 | 33 | 207 | 5.33 | 4.7 | 4.7 | 2.5 | > 39 | 1.1 | 0.9 | 0.35 | 35 | 9.4 | 2.2 | 1.9 | – |
| N#CC1CN1C(=O)Nc1ccc(Cl)c(Cl)c1 (centres unmarked) [Compound 18, 2-Cyanoaziridine-1-[N-(3,4-dichlorophenyl)]carboxamide] | 3.42 | 7.2 | 2.6 | 5.96 | 1.1 | 1.1 | 7.5 | 5.9 | 7.2 | 4.6 | 4.4 | 5.6 | 2.7 | 7 | 14 | – |
| CC(=O)Oc1ccccc1NC(=O)N1CC1C#N (centres unmarked) [Compound 21, 2-Cyanoaziridine-1-[N-(2-acetoxyphenyl)]carboxamide] | 1.45 | 7.9 | 9.6 | 5.06 | 8.7 | 8.7 | 5.6 | 7.9 | 3.2 | 3.6 | 3.5 | 10 | 9.6 | 3.3 | 9 | – |
| N#CC1CN1C(=O)Nc1cccc2ccccc12 (centres unmarked) [Compound 23, 2-Cyanoaziridine-1-[N-(1-naphthyl)]carboxamide] | 3.32 | 2.5 | 7.2 | 5.10 | 8 | 8 | 2.5 | 4.2 | 1.7 | 2 | 2 | 5.9 | 8.9 | 2.4 | 2.5 | – |
| N#CC1CN1C(=O)Nc1cccnc1 (centres unmarked) [Compound 24, 2-Cyanoaziridine-1-[N-(3-pyridyl)]carboxamide] | 0.32 | 16 | 11 | 4.95 | 12 | 12 | 16 | 12 | 6.6 | 4.2 | 5.4 | 10 | 15 | 6 | 18 | – |
| N[C@@H](Cc1ccc(N(CCCl)CCCl)cc1)C(=O)O [Melphalan, 4-[bis(2-chloroethyl)amino]-L-phenylalanine] | – | – | – | – | – | – | – | – | – | – | – | – | – | – | – | patients showing a favorable response ([1]; multiple myeloma, oral administration): one third to one half |
| CO[C@@]12[C@H](COC(N)=O)C3=C(C(=O)C(C)=C(N)C3=O)N1C[C@@H]1N[C@@H]12 [Mitomycin] | – | – | – | – | – | – | – | – | – | – | – | – | – | – | – | maximal serum concentration ([15]; 10 mg I.V.): 0.52 mg/mL; maximal serum concentration ([15]; 20 mg I.V.): 1.7 mg/mL; maximal serum concentration ([15]; 30 mg I.V.): 2.4 mg/mL; time required to reduce the serum concentration by about 50% ([15]; 30 mg bolus injection): 17 min; dose excreted unchanged in the urine ([15]; in vivo): Approximately 10% |
